In patent US20180320177A1, “COMPOSITIONS AND METHODS FOR THE TREATMENT OF LIVER FIBROSIS” (UNIVERSITY OF CONNECTICUT, priority 2015, published 2018):

Tests used:
CGR8 ES cells = assay: CGR8 ES cell differentiation and EB formation; type: cell-based, mouse
Method: Cell culture, Cell transfection:HEK293T, Hela, Hep3B and MHCC97H cells were cultured and transfected using X-tremeGENE™ HP DNA transfection reagent (Roche) as described previously. CGR8 ES cells were cultured on 0.1% gelatin coated tissue-culture dish in knockout DMEM medium containing 15% ES qualified-Fetal Bovine Serum, 2 mM L-glutamin, 0.1 mM NEAA, 0.1 mM β-mercaptoethanol, 50 μg/ml penicillin-streptomycin and 10 ng/ml Leukemia inhibitory factor (LIF). TIC cells were cultured in DMEM-F12 medium containing Embryomax nucleotides, 2 mM L-glutamin, 0.1 mM NEAA, 20 ng/ml mouse EGF, 50 μg/ml penicillin-streptomycin and […].
ES cells EB formation and TICs spheroid assay: CGR8 ES cells were trypsinized into single cells and cultured in ES medium devoid of LIF in hanging drops (900 cells per EB) for 2 d and transferred to ultralow attachment plate for a further 2 d suspension culture. Then, EBs were plated onto gelatin coated tissue-culture plate for further 7 d spontaneously differentiation.
FIGS. 10A-C show the establishment of CGR8 cell culture and differentiation. […] Undifferentiated feeder-free CGR8 ES cells were maintained on 0.1% gelatin coated 6-cm tissue-culture dish in ES medium containing 10 ng/ml Leukemia inhibitory factor (LIF). For EB formation, CGR8 ES cells were trypsinized into single cells and cultured in ES medium devoid of LIF in hanging drops (900 cells per EB) for 2 d and in suspension culture for a further 2 d. Then, EBs were transferred onto gelatin coated tissue-culture plate for further spontaneously differentiation. ES withdraw LIF 2d, CGR8 ES cells were cultured in ES medium devoid of LIF for 2 d.
FIG. 14A is Left, Western blot of HMGB2 and SOX2 protein in HEK293T cells transfected with 0.5 μg […] expression plasmid and 0, 1 or 2 μg Flag-HMGB2 expression plasmid. Right, Western blot of HMGB2 and OCT4 protein in HEK293T cells transfected with 0.5 μg HA-OCT4 expression plasmid and 0, 1 or 2 μg Flag-HMGB2 expression plasmid. […] CGR8 cells were lysed, co-immunoprecipitated with OCT4 antibody, followed by Western blot with HMGB2 or OCT4 antibodies. FIG. 14 C is a luciferase reporter assay. HepG2 cells were infected with AAV8-GFP or AAV8-HMGB2 24 hrs before being transfected with 6*OS luciferase reporter and OCT4, SOX2 expression plasmids alone or in combination.

TIC cells = assay: TIC cell migration and invasion assays; type: cell-based; settings: TIC cells (FIG. 7C, 7D)
Method: Cell Lines The LX-2 human stellate cell line was maintained in Dulbecco's Modified Eagle's Medium (DMEM) supplemented with 2% fetal bovine serum (FBS), 100 IU/ml penicillin, and 100 μg/ml streptomycin. Human hepatocellular carcinoma (HCC) MHCC97H cells were maintained in DMEM supplemented with 10% FBS, 100 IU/ml penicillin, and 100 μg/ml streptomycin, 1 mM HEPES, 1 mM sodium pyruvate, 2 mM L-glutamine. Tumor-initiating (TIC) cells were obtained from Dr. Hidekazu Tsukamoto at University of Southern California and were maintained in 1:1 DMEM:F12 supplement with 100 U/ml penicillin and 100 μg/ml streptomycin, 2 mM glutamine, 20 ng/ml mouse EGF, 10 nM dexamethasone, 1× embryomax nucleotides. All the cells were maintained at 37° C. humidified atmosphere with 5% CO2. TIC cells were infected with Hmgb2 shRNA lentivirus for 48 hr, and treated with 500 ng/ml puromycin for 2 weeks. The stable cells were used for migration and invasion assay, as well as western blot.
Cell Migration and Invasion: Cell migration and invasion assays were performed as described in the art. Briefly, control TIC cells or TIC cells with a stable knockdown of HMGB2 were infected with AAV8-Null or AAV-8-HMGB2 for 48 hr. The cells were then serum starved for 24 hr and 5×10^4 cells were seeded on transwell inserts with 8 μm pore size (Culterx® 96 well cell migration assay, cat# 3465-095-K). Cells were allowed to migrate for 16 hr. Non-migrating cells were removed from the insert with a cotton swab. The migrated cells were fixed for 10 min (3.7% v/v formaldehyde in PBS), and stained with 0.1% crystal violet for 15 min. Cells were washed with PBS and pictures were taken with Microfire/Qcam CCD Olympus 1×81 microscope. Cells stained with crystal violet were counted and then lysed with 1% SDS for 30 min and the absorbance was measured at 570 nm. Cell invasion assays were performed similarly to migration assays, except that the cells were seeded on pre-coated inserts with BME solution (Cultrex® 96 well BME cell invasion Assay, cat# 3455-096-K). Invaded cells were fixed, stained and the absorbance was measured as in the migration assay.

CC1(C)Oc2cc(O)ccc2C2C1=CCn1c(=O)n(-c3ccccc3)c(=O)n12 (stereo not shown) [ICM, inflachromene]
CGR8 differentiation (CGR8 ES cells; 5 μM ICM versus DMSO (FIG. 14E)): induces CGR8 differentiation | cell invasion (TIC cells): markedly blocks | cell migration (TIC cells): markedly blocks

shHMGB2: small hairpin RNA against HMGB2 (SEQ ID NO: 8), delivered by AAV or lentivirus (CCGGGCTCAACATTAGCTTCAGTATCTCGAGATACTGAAGCTAATGTTGAGCTTTTTG)
spheroid formation of CGR8 cells (CGR8 ES cells; EB formation, AAV8 infection versus AAV8-Null (FIG. 14D)): decreases spheroid formation | CGR8 differentiation (CGR8 ES cells; knockdown of HMGB2 (summary)): promotes CGR8 differentiation | cell invasion (TIC cells): decreased | cell migration (TIC cells): decreased
